The results in this text go back to US4923882A, “Novel amine derivatives, salts thereof and an anti-ulcer agent containing the same” (Toyama Chemical Co., Ltd., priority 1982, dated 1990).

The test system of assay [1] is gastric acid secretion. In words: Inhibitory effect on gastric acid secretion, pylorus ligation method (histamine). It counts as in vivo, Wistar strain rats. The conditions noted are these: Rattus norvegicus, oral, histamine 25 mg/kg s.c., read-out: Inhibition percentage (gastric acid secretion). The method, then: Five to six Wistar strain rats (male, 190 to 230 g) per group were starved for 35 hours, after which each drug was orally administered, and after 2 hours, the pylorus of each rat was ligated under ether anesthesia. […] After 3 hours, each rat was killed, after which the cardiac portion was ligated, and the stomach was removed. After 1 ml of distilled water was injected into the stomach, the gastric juice was collected by centrifugation and its volume was measured. The acidity of the gastric juice was measured by titrating 1 ml of the gastric juice with a 0.1N aqueous sodium hydroxide solution, taking pH 7.0 as the end-point. Physiological saline was administered to a control group.
The inhibition percentage of gastric acid secretion was determined from the following equation: [formula]

The test system of assay [2] is gastric acid secretion. Kind of assay: Inhibitory effect on gastric acid secretion, perfused stomach preparation of anesthetized rat (histamine stimulated). It counts as in vivo, Wistar strain rats. The conditions noted are these: intravenous; for ED100: Rattus norvegicus, cumulative, histamine 30 μg/kg/min, read-out: Dose for complete inhibition; for Duration: time from complete inhibition until pH of perfusate became 4. The method, then:
(i) Perfused stomach preparation of anesthetized rat [according to M. N. Ghosh and H. O. Schild: Brit. J. Pharmacol. 13, 54 (1958)]
Wistar strain rats (male, 200 to 250 g) starved for 18 hours were anesthetized with urethane and then subjected to laparotomy, after which the forestomach region of the stomach of each rat was incised. The whole interior of the stomach was sufficiently washed with physiological saline, and the cut edges were sutured. A silicon tube was inserted into the stomach to a length of about 5 mm from the duodenum side and fixed. Subsequently, the stomach was perfused with physiological saline adjusted to a pH of about 10 with an aqueous sodium hydroxide solution at a constant rate (1 ml/min) through an oral sonde, and the change in pH of the perfusate which had flowed out through the silicone tube was continuously recorded. During the perfusion, histamine (30 μg/kg/min) was continuously injected, as an agent for stimulating gastric acid secretion, through the femoral vein at a rate of 0.3 ml/min. Each drug was intravenously administered when the acid secretion became almost constant (pH 3.3±0.2), and cumulatively administered when the inhibition of acid secretion at each dose reached a plateau.
The number of experiments was three for each dose.

Take `O=[N+]([O-])C=C(NCCCOc1cccc(CN2CCCCC2)c1)NCC(O)c1cccc(F)c1` (stereo not drawn) [compound 43, N-[2-(3-fluorophenyl)-2-hydroxyethyl]-2-nitro-N'-[3-(3-piperidinomethylphenoxy)propyl]-1,1-ethenediamine]: the inhibition in vivo at 1 mg/kg in the assay with gastric acid secretion [1] was 51%.
As to `O=[N+]([O-])C=C(NCCCOc1cccc(CN2CCCCC2)c1)NCC(O)c1ccc(O)cc1` (stereo not drawn) [compound 12, N-[2-hydroxy-2-(4-hydroxyphenyl)ethyl]-2-nitro-N'-[3-(3-piperidinomethylphenoxy)propyl]-1,1-ethenediamine], the inhibition in vivo at 3 mg/kg in the assay with gastric acid secretion [1] came out at 87%. Also, in the assay with gastric acid secretion [2], the ED100 worked out at 0.15 mg/kg and the Duration is > 240 min.
For `CN(C)Cc1ccc(CSCCNC(=C[N+](=O)[O-])NCC(O)c2ccc(Cl)cc2)o1` (stereo not drawn) [compound 5, N-[2-(4-chlorophenyl)-2-hydroxyethyl]-N'-{2-[[5-(dimethylamino)methyl-2-furyl]methylthio]ethyl}-2-nitro-1,1-ethenediamine] the same measures were 80%, 0.1 mg/kg and 192 min.
For `Cc1ccsc1C(O)CNC(=C[N+](=O)[O-])NCCSCc1ccc(CN(C)C)o1` (stereo not drawn) [compound 7, N-{2-[[5-(dimethylamino)methyl-2-furyl]methylthio]ethyl}-N'-[2-hydroxy-2-(3-methyl-2-thienyl)ethyl]-2-nitro-1,1-ethenediamine], the inhibition in vivo at 3 mg/kg in the assay on gastric acid secretion [1] came to 88%. In addition, in the assay with gastric acid secretion [2], the ED100 stood at 0.1 mg/kg and the Duration was determined as 227 min.
With `O=[N+]([O-])C=C(NCCCOc1cccc(CN2CCCCC2)c1)NCC(O)c1cccc(O)c1` (stereo not drawn) [compound 13, N-[2-hydroxy-2-(3-hydroxyphenyl)ethyl]-2-nitro-N'-[3-(3-piperidinomethylphenoxy)propyl]-1,1-ethenediamine], the inhibition in vivo at 1 mg/kg in the assay on gastric acid secretion [1] is 51%. Moreover, in the assay with gastric acid secretion [2], the ED100 came to 0.1 mg/kg and the Duration was > 240 min.
`Nc1ccc(C(O)CNC(=C[N+](=O)[O-])NCCCOc2cccc(CN3CCCCC3)c2)cc1` (stereo not drawn) [compound 45, N-[2-(4-aminophenyl)-2-hydroxyethyl]-2-nitro-N'-[3-(3-piperidinomethylphenoxy)propyl]-1,1-ethenediamine]: the inhibition in vivo at 1 mg/kg in the assay with gastric acid secretion [1] worked out at 65%.
For the compound `CN(C)Cc1ccc(CSCCNC(=C[N+](=O)[O-])NCC(O)c2cccs2)o1` (stereo not drawn) [compound 6], in the assay on gastric acid secretion [1], the inhibition in vivo at 3 mg/kg came to 67% and the inhibition in vivo at 10 mg/kg turned out to be 93%. Also, in the assay with gastric acid secretion [2], the ED100 worked out at 0.1 mg/kg and the Duration was 132 min.
For the compound `COc1ccc(C(O)CNC(=C[N+](=O)[O-])NCCCOc2cccc(CN3CCCCC3)c2)cc1` (stereo not drawn) [compound 14, N-[2-hydroxy-2-(4-methoxyphenyl)ethyl]-2-nitro-N'-[3-(3-piperidinomethylphenoxy)propyl]-1,1-ethenediamine], the inhibition in vivo at 1 mg/kg in the assay with gastric acid secretion [1] was 61%. In addition, in the assay on gastric acid secretion [2], the ED100 came to 0.15 mg/kg and the Duration turned out to be 158 min.
For `O=[N+]([O-])C=C(NCCCOc1cccc(CN2CCCCC2)c1)NCC(O)c1ccc(Cl)cc1` (stereo not drawn) [compound 16, N-[2-(4-chlorophenyl)-2-hydroxyethyl]-2-nitro-N'-[3-(3-piperidinomethylphenoxy)propyl]-1,1-ethenediamine], in the assay on gastric acid secretion [1], the inhibition in vivo at 3 mg/kg amounted to 89%. In the assay with gastric acid secretion [2], the ED100 turned out to be 0.1 mg/kg and the Duration was found to be 304 min.
As to `COc1ccc(C(O)CNC(=C[N+](=O)[O-])NCCSCc2ccc(CN(C)C)o2)cc1` (stereo not drawn) [compound 37, N-{2-[[5-(dimethylamino)methyl-2-furyl]methylthio]ethyl}-N'-[2-hydroxy-2-(4-methoxyphenyl)ethyl]-2-nitro-1,1-ethenediamine], the inhibition in vivo at 3 mg/kg in the assay with gastric acid secretion [1] was determined as 77%.
Turning to `CN(C)Cc1ccc(CSCCNC(=C[N+](=O)[O-])NCC(O)c2ccc(F)cc2)o1` (stereo not drawn) [compound 38, N-{2-[[5-(dimethylamino)methyl-2-furyl]methylthio]ethyl}-N'-[2-(4-fluorophenyl)-2-hydroxyethyl]-2-nitro-1,1-ethenediamine], the inhibition in vivo at 1 mg/kg with gastric acid secretion [1] was 41%.
Take `O=[N+]([O-])C=C(NCCCOc1cccc(CN2CCCCC2)c1)NCC(O)c1ccccc1F` (stereo not drawn) [compound 36, N-[2-(2-fluorophenyl)-2-hydroxyethyl]-2-nitro-N'-[3-(3-piperidinomethylphenoxy)propyl]-1,1-ethenediamine]: the inhibition in vivo at 3 mg/kg in the assay with gastric acid secretion [1] turned out to be 85%.
For the compound `Cc1cc(CSCCNC(=C[N+](=O)[O-])NCC(O)c2ccc(F)cc2)sc1CN(C)C` (stereo not drawn) [compound 41, N-{2-[[5-(dimethylamino)methyl-4-methyl-2-thienyl]methylthio]ethyl}-N'-[2-(4-fluorophenyl)-2-hydroxyethyl]-2-nitro-1,1-ethenediamine], the inhibition in vivo at 1 mg/kg in the assay on gastric acid secretion [1] was found to be 65%.
In the case of `Cc1ccccc1C(O)CNC(=C[N+](=O)[O-])NCCSCc1ccc(CN(C)C)o1` (stereo not drawn) [compound 39, N-{2-[[5-(dimethylamino)methyl-2-furyl]methylthio]ethyl}-N'-[2-hydroxy-2-(2-methylphenyl)ethyl]-2-nitro-1,1-ethenediamine], the inhibition in vivo at 3 mg/kg with gastric acid secretion [1] was determined as 90%.
As to `Cc1ccsc1C(O)CNC(=C[N+](=O)[O-])NCCCOc1cccc(CN2CCCCC2)c1` (stereo not drawn) [compound 18, N-[2-hydroxy-2-(3-methyl-2-thienyl)ethyl]-2-nitro-N'-[3-(3-piperidinomethylphenoxy)propyl]-1,1-ethenediamine], the inhibition in vivo at 3 mg/kg in the assay on gastric acid secretion [1] turned out to be 87%. In the assay on gastric acid secretion [2], the ED100 is 0.3 mg/kg and the Duration was 247 min.
Turning to `Cc1cc(CSCCNC(=C[N+](=O)[O-])NCC(O)c2ccc(F)cc2F)sc1CN(C)C` (stereo not drawn) [compound 35, N-{2-[[5-(dimethylamino)methyl-4-methyl-2-thienyl]methylthio]ethyl}-N'-[2-(2,4-difluorophenyl)-2-hydroxyethyl]-2-nitro-1,1-ethenediamine], the inhibition in vivo at 1 mg/kg in the assay on gastric acid secretion [1] stood at 47%.
For `CN(C)Cc1ccc(CSCCNC(=C[N+](=O)[O-])NCC(O)c2cccnc2)o1` (stereo not drawn) [compound 8, N-{2-[[5-(dimethylamino)methyl-2-furyl]methylthio]ethyl}-N'-[2-hydroxy-2-(3-pyridyl)ethyl]-2-nitro-1,1-ethenediamine], in the assay with gastric acid secretion [2], the ED100 came to 0.3 mg/kg and the Duration was determined as 200 min.
Consider `Cc1ccccc1C(O)CNC(=C[N+](=O)[O-])NCCCOc1cccc(CN2CCCCC2)c1` (stereo not drawn) [compound 44, N-[2-hydroxy-2-(2-methylphenyl)ethyl]-2-nitro-N'-[3-(3-piperidinomethylphenoxy)propyl]-1,1-ethenediamine], for which the inhibition in vivo at 1 mg/kg in the assay on gastric acid secretion [1] was determined as 75%.
For `O=[N+]([O-])C=C(NCCCOc1cccc(CN2CCCCC2)c1)NCC(O)c1ccccc1` (stereo not drawn) [compound 11, N-(β-hydroxyphenethyl)-2-nitro-N'-[3-(3-piperidinomethylphenoxy)propyl]-1,1-ethenediamine], in the assay with gastric acid secretion [1], the inhibition in vivo at 3 mg/kg amounted to 79% and the inhibition in vivo at 10 mg/kg came to 81%. In the assay on gastric acid secretion [2], the ED100 amounted to 0.05 mg/kg and the Duration came out at 123 min.
Turning to `Cc1cc(CSCCNC(=C[N+](=O)[O-])NCC(O)c2ccc(O)cc2)sc1CN(C)C` (stereo not drawn) [compound 10, N-{2-[[5-(dimethylamino)methyl-4-methyl-2-thienyl]methylthio]ethyl}-N'-[2-hydroxy-2-(4-hydroxyphenyl)ethyl]-2-nitro-1,1-ethenediamine], in the assay with gastric acid secretion [2], the ED100 came to 0.18 mg/kg and the Duration amounted to 175 min.
In the case of `Cc1cc(CSCCNC(=C[N+](=O)[O-])NCC(O)c2c(F)cccc2F)sc1CN(C)C` (stereo not drawn) [compound 34, N-{2-[[5-(dimethylamino)methyl-4-methyl-2-thienyl]methylthio]ethyl}-N'-[2-(2,6-difluorophenyl)-2-hydroxyethyl]-2-nitro-1,1-ethenediamine], in the assay on gastric acid secretion [1], the inhibition in vivo at 3 mg/kg worked out at 71%.
Consider `O=[N+]([O-])C=C(NCCCOc1cccc(CN2CCCCC2)c1)NCC(O)c1ccc(F)c(F)c1` (stereo not drawn) [compound 30, N-[2-(3,4-difluorophenyl)-2-hydroxyethyl]-2-nitro-N'-[3-(3-piperidinomethylphenoxy)propyl]1,1-ethenediamine], for which, in the assay on gastric acid secretion [2], the ED100 was determined as 0.15 mg/kg and the Duration is > 240 min.
Consider `O=[N+]([O-])C=C(NCCCOc1cccc(CN2CCCCC2)c1)NCC(O)c1ccc([N+](=O)[O-])cc1` (stereo not drawn) [compound 20, N-[2-hydroxy-2-(4-nitrophenyl)ethyl]-2-nitro-N'-[3-(3-piperidinomethylphenoxy)propyl]-1,1-ethenediamine], for which the Duration with gastric acid secretion [2] is > 210 min.
`CSc1ccc(C(O)CNC(=C[N+](=O)[O-])NCCSCc2ccc(CN(C)C)o2)cc1` (stereo not drawn) [compound 24, N-{2-[[5-(dimethylamino)methyl-2-furyl]methylthio]ethyl}-N'-[2-hydroxy-2-(4-methylthiophenyl)ethyl]-2-nitro-1,1-ethenediamine]: in the assay with gastric acid secretion [2], the ED100 turned out to be 0.2 mg/kg and the Duration is reported as > 240 min.
